From patent publication US10590140B2, “Tetrahydropyrimidodiazepine and dihydropyridodiazepine compounds for treating pain and pain related conditions” (ESTEVE PHARMACEUTICALS, S.A., priority 2016, dated 2020)
Where two headings read alike, the source gives them in different places.

How the values were obtained:
[1] = target: human norepinephrine transporter (NET) (Homo sapiens (Human), UniProt P23975); assay: Binding assay to human norepinephrine transporter (NET) ([3H]-Nisoxetin); conditions: Table 2, dual compounds; [3H]-Nisoxetin binding
Outline: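 NET-enriched membranes (5 μg) incubated with 5 nM [3H]-nisoxetin in 50 mM Tris-HCl, 120 mM NaCl, 5 mM KCl, pH 7.4, 60 min at 4 °C. Bound ligand separated by filtration on PEI-soaked GF/C and counted by scintillation; nonspecific binding defined with 1 μM competitor.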

[2] = target: human α2δ-1 subunit of Cav2.2 calcium channel (Homo sapiens (Human), UniProt P54289); assay: Binding assay to human α2δ-1 subunit of Cav2.2 calcium channel ([3H]-Gabapentin); conditions: read-out: Ki (nM) α2δ-1
Outline: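 [3H]-gabapentin binding, 60 min at 27° C; nonspecific binding defined with 10 μM pregabalin. Terminated by filtration on PEI-presoaked GF/C filters, ice-cold 50 mM Tris-HCl pH 7.4 washes, then scintillation counting.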

[3] = Table 2, dual compounds, [3H]-Gabapentin binding
[4] = binding to α2δ-1, [3H]-Gabapentin

Sequence of human α2δ-1 subunit of Cav2.2 calcium channel (P54289 25-1103): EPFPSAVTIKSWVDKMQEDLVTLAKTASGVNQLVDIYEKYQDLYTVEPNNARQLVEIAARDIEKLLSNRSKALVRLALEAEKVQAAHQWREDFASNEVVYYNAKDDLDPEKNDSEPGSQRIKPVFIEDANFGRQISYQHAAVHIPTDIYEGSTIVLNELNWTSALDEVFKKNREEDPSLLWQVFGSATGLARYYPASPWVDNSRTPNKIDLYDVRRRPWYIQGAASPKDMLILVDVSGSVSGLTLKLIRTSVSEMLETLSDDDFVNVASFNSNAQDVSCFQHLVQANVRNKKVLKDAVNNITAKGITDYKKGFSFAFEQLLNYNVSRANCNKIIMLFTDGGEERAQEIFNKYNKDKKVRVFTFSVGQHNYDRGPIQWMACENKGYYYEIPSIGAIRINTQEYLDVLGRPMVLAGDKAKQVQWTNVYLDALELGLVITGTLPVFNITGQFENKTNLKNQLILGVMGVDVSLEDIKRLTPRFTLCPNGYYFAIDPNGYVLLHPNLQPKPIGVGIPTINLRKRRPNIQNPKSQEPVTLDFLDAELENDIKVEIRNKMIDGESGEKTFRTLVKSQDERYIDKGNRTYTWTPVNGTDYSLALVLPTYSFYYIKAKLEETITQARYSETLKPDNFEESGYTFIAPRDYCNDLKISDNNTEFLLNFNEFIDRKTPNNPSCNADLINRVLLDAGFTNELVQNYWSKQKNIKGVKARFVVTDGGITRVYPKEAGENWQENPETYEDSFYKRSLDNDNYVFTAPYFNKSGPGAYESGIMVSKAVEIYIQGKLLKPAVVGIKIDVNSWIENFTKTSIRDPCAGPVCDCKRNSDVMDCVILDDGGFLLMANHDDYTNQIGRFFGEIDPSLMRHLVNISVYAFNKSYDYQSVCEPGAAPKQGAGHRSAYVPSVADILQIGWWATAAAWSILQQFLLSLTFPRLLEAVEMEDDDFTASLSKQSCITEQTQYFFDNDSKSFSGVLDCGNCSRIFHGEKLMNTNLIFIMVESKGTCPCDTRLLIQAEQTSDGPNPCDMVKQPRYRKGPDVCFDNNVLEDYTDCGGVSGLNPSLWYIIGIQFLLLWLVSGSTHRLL
Sequence of human norepinephrine transporter (NET) (P23975 whole entry): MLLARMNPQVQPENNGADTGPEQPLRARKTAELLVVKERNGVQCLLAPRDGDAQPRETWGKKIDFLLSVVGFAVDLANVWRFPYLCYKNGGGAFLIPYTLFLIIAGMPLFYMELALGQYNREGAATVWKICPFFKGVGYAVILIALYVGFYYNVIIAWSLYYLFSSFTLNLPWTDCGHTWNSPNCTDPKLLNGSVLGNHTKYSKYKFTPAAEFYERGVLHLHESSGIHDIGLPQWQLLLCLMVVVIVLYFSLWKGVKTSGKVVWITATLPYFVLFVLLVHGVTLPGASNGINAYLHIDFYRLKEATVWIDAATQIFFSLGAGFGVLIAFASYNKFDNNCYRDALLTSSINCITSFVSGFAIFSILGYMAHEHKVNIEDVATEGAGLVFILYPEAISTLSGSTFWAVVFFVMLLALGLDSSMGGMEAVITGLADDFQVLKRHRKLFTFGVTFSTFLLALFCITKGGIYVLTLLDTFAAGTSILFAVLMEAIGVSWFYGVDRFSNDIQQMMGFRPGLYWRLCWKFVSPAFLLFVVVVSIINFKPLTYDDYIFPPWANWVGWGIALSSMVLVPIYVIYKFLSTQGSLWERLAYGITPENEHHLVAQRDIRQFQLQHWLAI

Ki [1] | Ki [2, 3] | Ki [2, 4] | SMILES
100 to 500 nM | > 3000 nM | > 3000 nM | CCNc1ncc2c(n1)N(C)CCN(c1ccc(COC(CCNC)c3cccs3)cc1)C2=O (stereo not drawn) [Example 348, 2-(ethylamino)-9-methyl-6-(4-((3-(methylamino)-1-(thiophen-2-yl)propoxy)methyl)phenyl)-6,7,8,9-tetrahydro-5H-pyrimido[4,5-e][1,4]diazepin-5-one]
< 100 nM | > 3000 nM | > 3000 nM | CNCCC(OCc1ccc(N2CCN(C)c3nc(C)ncc3C2=O)cc1)c1ccccc1 (stereo not drawn) [Example 353, 2,9-dimethyl-6-(4-((3-(methylamino)-1-phenylpropoxy)methyl)phenyl)-6,7,8,9-tetrahydro-5H-pyrimido[4,5-e][1,4]diazepin-5-one]
100 to 500 nM | 500 to 3000 nM | 500 to 3000 nM | CCc1ncc2c(n1)N(C)CCN(c1cccc(COC(CCNC)c3ccccc3)c1)C2=O (stereo not drawn) [Example 354, 2-ethyl-9-methyl-6-(3-((3-(methylamino)-1-phenylpropoxy)methyl)phenyl)-6,7,8,9-tetrahydro-5H-pyrimido[4,5-e][1,4]diazepin-5-one]
< 100 nM | > 3000 nM | > 3000 nM | CNCC(OCc1ccc(N2CCN(C)c3nc(C)ncc3C2=O)cc1)c1ccccc1 (stereo not drawn) [Example 355, 2,9-dimethyl-6-(4-((2-(methylamino)-1-phenylethoxy)methyl)phenyl)-6,7,8,9-tetrahydro-5H-pyrimido[4,5-e][1,4]diazepin-5-one]
100 to 500 nM | 500 to 3000 nM | 500 to 3000 nM | CCc1ncc2c(n1)N(C)CCN(c1cccc(CO[C@H](CCNC)c3ccccc3)c1)C2=O [Example 356, (R)-2-ethyl-9-methyl-6-(3-((3-(methylamino)-1-phenylpropoxy)methyl)phenyl)-6,7,8,9-tetrahydro-5H-pyrimido[4,5-e][1,4]diazepin-5-one]
500 to 1000 nM | > 3000 nM | > 3000 nM | CNCCC(Oc1cccc(CN2CCN(C)c3nc(SC)ncc3C2=O)c1)c1ccccc1 (stereo not drawn) [Example 366, 9-methyl-6-(3-(3-(methylamino)-1-phenylpropoxy)benzyl)-2-(methylthio)-6,7,8,9-tetrahydro-5H-pyrimido[4,5-e][1,4]diazepin-5-one]
100 to 500 nM | > 3000 nM | > 3000 nM | CNCCC(OCc1cccc(CN2CCN(C)c3nc(SC)ncc3C2=O)c1)c1ccccc1 (stereo not drawn) [Example 367, 9-methyl-6-(3-((3-(methylamino)-1-phenylpropoxy)methyl)benzyl)-2-(methylthio)-6,7,8,9-tetrahydro-5H-pyrimido[4,5-e][1,4]diazepin-5-one]
100 to 500 nM | > 3000 nM | > 3000 nM | CNCCC(OCc1ccc(CN2CCN(C)c3nc(SC)ncc3C2=O)cc1)c1ccccc1 (stereo not drawn) [Example 368, 9-methyl-6-(4-((3-(methylamino)-1-phenylpropoxy)methyl)benzyl)-2-(methylthio)-6,7,8,9-tetrahydro-5H-pyrimido[4,5-e][1,4]diazepin-5-one]
< 100 nM | 500 to 3000 nM | 500 to 3000 nM | CNCCC(Oc1ccc(CN2CCN(C)c3nc(SC)ncc3C2=O)cc1)c1ccccc1 (stereo not drawn) [Example 369, 9-methyl-6-(4-(3-(methylamino)-1-phenylpropoxy)benzyl)-2-(methylthio)-6,7,8,9-tetrahydro-5H-pyrimido[4,5-e][1,4]diazepin-5-one]
100 to 500 nM | > 3000 nM | > 3000 nM | CNCC(OCc1cccc(CN2CCN(C)c3nc(SC)ncc3C2=O)c1)c1ccccc1 (stereo not drawn) [Example 372, 9-methyl-6-(3-((2-(methylamino)-1-phenylethoxy)methyl)benzyl)-2-(methylthio)-6,7,8,9-tetrahydro-5H-pyrimido[4,5-e][1,4]diazepin-5-one]
100 to 500 nM | > 3000 nM | > 3000 nM | CNCC(OCc1ccc(CN2CCN(C)c3nc(SC)ncc3C2=O)cc1)c1ccccc1 (stereo not drawn) [Example 374, 9-methyl-6-(4-((2-(methylamino)-1-phenylethoxy)methyl)benzyl)-2-(methylthio)-6,7,8,9-tetrahydro-5H-pyrimido[4,5-e][1,4]diazepin-5-one]
100 to 500 nM | 100 to 500 nM | 100 to 500 nM | CNCCC(Oc1ccc(CN2CCN(C)c3ccncc3C2=O)cc1)c1cccs1 (stereo not drawn) [Example 381, 1-methyl-4-(4-(3-(methylamino)-1-(thiophen-2-yl)propoxy)benzyl)-1,2,3,4-tetrahydro-5H-pyrido[4,3-e][1,4]diazepin-5-one]
100 to 500 nM | 100 to 500 nM | 100 to 500 nM | CNCC[C@H](Oc1ccc(CN2CCN(C)c3ccncc3C2=O)cc1)c1cccs1 [Example 382, (S)-1-methyl-4-(4-(3-(methylamino)-1-(thiophen-2-yl)propoxy)benzyl)-1,2,3,4-tetrahydro-5H-pyrido[4,3-e][1,4]diazepin-5-one]
100 to 500 nM | 100 to 500 nM | 100 to 500 nM | CCNc1cc2c(cn1)C(=O)N(Cc1ccc(O[C@@H](CCNC)c3cccs3)cc1)CCN2C [Example 383, (S)-8-(ethylamino)-1-methyl-4-(4-(3-(methylamino)-1-(thiophen-2-yl)propoxy)benzyl)-1,2,3,4-tetrahydro-5H-pyrido[4,3-e][1,4]diazepin-5-one]
100 to 500 nM | 100 to 500 nM | 100 to 500 nM | CNCC[C@H](Oc1ccc(CN2CCN(C)c3cc(OC)ncc3C2=O)cc1)c1cccs1 [Example 385, (S)-8-methoxy-1-methyl-4-(4-(3-(methylamino)-1-(thiophen-2-yl)propoxy)benzyl)-1,2,3,4-tetrahydro-5H-pyrido[4,3-e][1,4]diazepin-5-one]
< 100 nM | > 3000 nM | > 3000 nM | CNCCC(Oc1ccc(CN2CCN(C)c3nc(OC)ncc3C2=O)cc1)c1sccc1C (stereo not drawn) [Example 388, 2-methoxy-9-methyl-6-(4-(3-(methylamino)-1-(3-methylthiophen-2-yl)propoxy)benzyl)-6,7,8,9-tetrahydro-5H-pyrimido[4,5-e][1,4]diazepin-5-one]
100 to 500 nM | > 3000 nM | > 3000 nM | CCNc1ncc2c(n1)N(C)CCN(Cc1ccc(COC(CCNC)c3ccccc3)cc1)C2=O (stereo not drawn) [Example 405, 2-(ethylamino)-9-methyl-6-(4-((3-(methylamino)-1-phenylpropoxy)methyl)benzyl)-6,7,8,9-tetrahydro-5H-pyrimido[4,5-e][1,4]diazepin-5-one]
100 to 500 nM | > 3000 nM | > 3000 nM | CCNc1ncc2c(n1)N(C)CCN(Cc1cccc(COC(CCNC)c3ccccc3)c1)C2=O (stereo not drawn) [Example 406, 2-(ethylamino)-9-methyl-6-(3-((3-(methylamino)-1-phenylpropoxy)methyl)benzyl)-6,7,8,9-tetrahydro-5H-pyrimido[4,5-e][1,4]diazepin-5-one]
< 100 nM | 500 to 3000 nM | 500 to 3000 nM | CCNc1ncc2c(n1)N(C)CCN(Cc1ccc(OC(CCNC)c3ccccc3)cc1)C2=O (stereo not drawn) [Example 408, 2-(ethylamino)-9-methyl-6-(4-(3-(methylamino)-1-phenylpropoxy)benzyl)-6,7,8,9-tetrahydro-5H-pyrimido[4,5-e][1,4]diazepin-5-one]
500 to 1000 nM | > 3000 nM | > 3000 nM | CCNc1ncc2c(n1)N(C)CCN(Cc1cccc(COC(CNC)c3ccccc3)c1)C2=O (stereo not drawn) [Example 411, 2-(ethylamino)-9-methyl-6-(3-((2-(methylamino)-1-phenylethoxy)methyl)benzyl)-6,7,8,9-tetrahydro-5H-pyrimido[4,5-e][1,4]diazepin-5-one]
100 to 500 nM | 500 to 3000 nM | 500 to 3000 nM | CCNc1ncc2c(n1)N(C)CCN(Cc1ccc(COC(CNC)c3ccccc3)cc1)C2=O (stereo not drawn) [Example 413, 2-(ethylamino)-9-methyl-6-(4-((2-(methylamino)-1-phenylethoxy)methyl)benzyl)-6,7,8,9-tetrahydro-5H-pyrimido[4,5-e][1,4]diazepin-5-one]
< 100 nM | 500 to 3000 nM | 500 to 3000 nM | CCNc1ncc2c(n1)N(C)CCN(Cc1ccc(O[C@@H](CCNC)c3ccccc3)cc1)C2=O [Example 414, (S)-2-(ethylamino)-9-methyl-6-(4-(3-(methylamino)-1-phenylpropoxy)benzyl)-6,7,8,9-tetrahydro-5H-pyrimido[4,5-e][1,4]diazepin-5-one]
100 to 500 nM | 500 to 3000 nM | 500 to 3000 nM | CCNc1ncc2c(n1)N(C)CCN(Cc1ccc(O[C@H](CCNC)c3ccccc3)cc1)C2=O [Example 415, (R)-2-(ethylamino)-9-methyl-6-(4-(3-(methylamino)-1-phenylpropoxy)benzyl)-6,7,8,9-tetrahydro-5H-pyrimido[4,5-e][1,4]diazepin-5-one]
100 to 500 nM | 100 to 500 nM | 100 to 500 nM | CNCC[C@H](Oc1ccc(CN2CCN(C)c3nc(N(C)C)ncc3C2=O)cc1)c1cccs1 [Example 419, (S)-2-(dimethylamino)-9-methyl-6-(4-(3-(methylamino)-1-(thiophen-2-yl)propoxy)benzyl)-6,7,8,9-tetrahydro-5H-pyrimido[4,5-e][1,4]diazepin-5-one]
500 to 1000 nM | > 3000 nM | > 3000 nM | CNCCC(OCc1ccc(CN2CCN(C)c3nc(C)ncc3C2=O)cc1)c1ccccc1 (stereo not drawn) [Example 422, 2,9-dimethyl-6-(4-((3-(methylamino)-1-phenylpropoxy)methyl)benzyl)-6,7,8,9-tetrahydro-5H-pyrimido[4,5-e][1,4]diazepin-5-one]
100 to 500 nM | > 3000 nM | > 3000 nM | CNCCC(OCc1cccc(CN2CCN(C)c3nc(C)ncc3C2=O)c1)c1ccccc1 (stereo not drawn) [Example 423, 2,9-dimethyl-6-(3-((3-(methylamino)-1-phenylpropoxy)methyl)benzyl)-6,7,8,9-tetrahydro-5H-pyrimido[4,5-e][1,4]diazepin-5-one]
